Activity calls are given as the source filed them. No cut-off for these calls is given here.
Key:
NG108-15 [1] = test: Antagonist activity at opiate receptor in mouse/rat NG108-15 cells assessed as inhibition of adenylate cyclase activity at 10^-7 M after 3 mins; format: cell-based
[2] = target: Opioid receptor (Rattus norvegicus) (UniProt P33533+P34975+P33535); test: Ratio of morphine to compound for binding affinity to rat brain opiate receptor
Mus musculus [3] = test: Ratio of morphine to compound for analgesic activity in ip dosed mouse; format: functional
Mus musculus [4] = test: Inhibition of norepinephrine release in sc dosed mouse heart administered 60 mins before [3H]-norepinephrine challenge; format: functional
NG108-15 [5] = test: Antagonist activity at opiate receptor in mouse/rat NG108-15 cells assessed as inhibition of adenylate cyclase activity at 2 x 10^-4 M after 3 mins; format: cell-based
NG108-15 [6] = test: Antagonist activity at opiate receptor in mouse/rat NG108-15 cells assessed as inhibition of adenylate cyclase activity at 10^-3 M after 3 mins; format: cell-based
Mus musculus [7] = test: Inhibition of norepinephrine release in mouse heart at >150 umol/kg, sc administered 60 mins before [3H]-norepinephrine challenge; format: functional, organism-based
Mus musculus [8] = test: Antinociceptive activity in mouse at 50 mg/kg, sc by hot-plate assay; format: functional, organism-based; set-up: dose 50 mg/kg
Mus musculus [9] = test: Toxicity in mouse at 80 mg/kg, iv; format: organism-based; set-up: dose 80 mg/kg, route intravenous; settings: in vivo
Mus musculus [10] = test: Toxicity in iv dosed mouse; format: organism-based; settings: in vivo
Mus musculus [11] = test: Toxicity in mouse at 5 mg/kg, iv; format: organism-based; set-up: dose 5 mg/kg, route intravenous; settings: in vivo
[12] = Mus musculus, sc, read-out: ED50

Chain of Opioid receptor (Rattus norvegicus) (P33533 whole entry, looked up): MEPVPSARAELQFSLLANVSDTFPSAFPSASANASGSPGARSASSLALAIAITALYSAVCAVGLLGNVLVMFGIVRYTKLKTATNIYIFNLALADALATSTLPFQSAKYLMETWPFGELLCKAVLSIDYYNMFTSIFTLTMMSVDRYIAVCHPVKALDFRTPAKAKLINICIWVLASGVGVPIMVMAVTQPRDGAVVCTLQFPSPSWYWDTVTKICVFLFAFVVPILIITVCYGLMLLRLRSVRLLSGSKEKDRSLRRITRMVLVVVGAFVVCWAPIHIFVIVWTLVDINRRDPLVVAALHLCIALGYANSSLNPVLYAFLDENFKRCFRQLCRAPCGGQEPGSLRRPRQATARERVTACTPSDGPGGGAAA
Chain of Opioid receptor (Rattus norvegicus) (P33535 whole entry, looked up): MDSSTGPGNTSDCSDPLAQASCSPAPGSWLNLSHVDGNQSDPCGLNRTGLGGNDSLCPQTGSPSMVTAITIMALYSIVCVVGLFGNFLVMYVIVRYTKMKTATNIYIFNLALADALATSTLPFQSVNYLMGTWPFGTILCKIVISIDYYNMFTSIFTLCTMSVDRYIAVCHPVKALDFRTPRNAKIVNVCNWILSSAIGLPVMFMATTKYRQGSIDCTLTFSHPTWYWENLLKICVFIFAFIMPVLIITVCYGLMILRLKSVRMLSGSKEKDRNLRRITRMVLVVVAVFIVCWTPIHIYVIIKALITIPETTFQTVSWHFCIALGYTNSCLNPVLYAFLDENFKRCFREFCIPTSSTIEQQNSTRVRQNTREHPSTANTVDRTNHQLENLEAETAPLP
Chain of Opioid receptor (Rattus norvegicus) (P34975 whole entry, looked up): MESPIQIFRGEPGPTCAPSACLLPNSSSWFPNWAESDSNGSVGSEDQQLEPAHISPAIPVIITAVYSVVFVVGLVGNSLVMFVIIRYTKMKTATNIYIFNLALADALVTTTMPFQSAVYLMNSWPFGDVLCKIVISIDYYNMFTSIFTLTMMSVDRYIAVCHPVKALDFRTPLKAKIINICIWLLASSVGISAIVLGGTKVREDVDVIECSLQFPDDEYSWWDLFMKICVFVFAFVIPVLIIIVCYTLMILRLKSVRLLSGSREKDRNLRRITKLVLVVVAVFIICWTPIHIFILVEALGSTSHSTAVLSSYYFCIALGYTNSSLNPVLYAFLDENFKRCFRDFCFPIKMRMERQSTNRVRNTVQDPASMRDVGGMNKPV

With `CN1CC[C@]23c4c5ccc(O)c4O[C@H]2[C@@H](O)C=C[C@H]3[C@H]1C5` the inhibition (NG108-15 [1]) was “Active”.

Work on `Nc1ccc(CCN2CC[C@]34CCCC[C@H]3[C@H]2Cc2ccc(O)cc24)cc1` yielded a Ratio [2] of over 10.

`CC1C2Cc3ccc(O)cc3C1(C)CCN2CCc1ccc(N)cc1` (stereo not drawn) showed a Ratio (Mus musculus [3]) of 20.

For `CN(C)CCc1ccc(O)cc1` [HORDENINE], the ED50 (Mus musculus [4]; [12]) was over 400 µmol/kg.

In the case of `CC(N)Cc1ccc(O)cc1` (stereo not drawn) [HYDROXYAMPHETAMINE], the ED50 (Mus musculus [4]; [12]) is reported as 13 µmol/kg.

With `NCCc1cc(O)c(O)cc1O` [OXIDOPAMINE] the ED50 (Mus musculus [4]; [12]) was 6.8 µmol/kg.

`CC1C2Cc3ccc(O)cc3C1(C)CCN2CCc1ccccc1` (stereo not drawn) [PHENAZOCINE] gave a Ratio (Mus musculus [3]) of 10.

Work on `CC(N)Cc1cc(O)c(O)cc1O` (stereo not drawn) yielded an ED50 (Mus musculus [4]; [12]) of 4.2 µmol/kg.

In the case of `CC1C2Cc3ccc(O)cc3C1(C)CCN2CCc1cc(O)c(O)cc1O.I` (stereo not drawn), the ED50 (Mus musculus [4]) is reported as 0 µmol/kg, the inhibition (NG108-15 [5]) is reported as “inactive” and the inhibition (NG108-15 [6]) is reported as “Active”. The inhibition (Mus musculus [7]) was “inactive”, the Activity (Mus musculus [8]) was “Active” and the Activity (Mus musculus [9]) was “Non-toxic”.

Compound `COc1ccc(CCN2CCC3(C)c4cc(O)ccc4CC2C3C)cc1` (stereo not drawn) has a Ratio (Mus musculus [3]) of 8.

`C[C@H]1C2Cc3ccc(O)cc3C1(C)CCN2` (stereo partly drawn) was tested, and the Activity (Mus musculus [10]) was “Toxic” and the LD100 (Mus musculus [11]) was 10 mg/kg.

With `COC(=O)[C@H]1[C@@H](OC(=O)c2ccccc2)C[C@@H]2CC[C@H]1N2C` [COCAINE] the ED50 (Mus musculus [4]) was 0 µmol/kg.
